Experimental findings from US9085555B2, “Complement pathway modulators and uses thereof” (priority 2011, dated 2015) are described below.

The target of this assay is Factor D (Homo sapiens (Human), UniProt P00746). In words: biochemical. Format: biochemical. The following applies: read-out: IC50.
Chain of Factor D (P00746 26-253): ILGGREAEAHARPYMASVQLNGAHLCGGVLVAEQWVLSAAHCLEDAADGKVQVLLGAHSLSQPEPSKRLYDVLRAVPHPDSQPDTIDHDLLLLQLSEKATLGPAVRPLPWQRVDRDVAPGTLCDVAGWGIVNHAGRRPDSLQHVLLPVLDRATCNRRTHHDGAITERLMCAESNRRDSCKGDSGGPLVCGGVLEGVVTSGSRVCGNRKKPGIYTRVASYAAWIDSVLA

A word on the IC50: it is the point on the concentration scale where inhibition reaches its midpoint. For `COC(=O)c1cc(Cl)c(F)c(CNC(=O)[C@@H]2C[C@@H](F)CN2C(=O)Nc2cn(C(N)=O)c3ccccc23)c1` [Example 244, 3-({[(2S,4R)-1-(1-Carbamoyl-1H-indol-3-ylcarbamoyl)-4-fluoro-pyrrolidine-2-carbonyl]-amino}-methyl)-5-chloro-4-fluoro-benzoic acid methyl ester], the IC50 was 17 nM. Regarding `COC[C@@H](NC(=O)[C@@H]1[C@H]2C[C@H]2CN1C(=O)Nc1cn(C(N)=O)c2ccccc12)c1cccc(Cl)c1F` [Example 245, (1S,2S,5R)-3-Aza-bicyclo[3.1.0]hexane-2,3-dicarboxylic acid 3-[(1-carbamoyl-1H-indol-3-yl)-amide] 2-{[(S)-1-(3-chloro-2-fluoro-phenyl)-2-methoxy-ethyl]-amide}], the IC50 was 1050 nM. To `NC(=O)n1cc(NC(=O)N2C[C@H](F)C[C@H]2C(=O)NC(C(=O)O)c2cccc(Cl)c2)c2ccccc21` (stereo partly drawn) [Example 246, {[(2S,4R)-1-(1-Carbamoyl-1H-indol-3-ylcarbamoyl)-4-fluoro-pyrrolidine-2-carbonyl]-amino}-(3-chloro-phenyl)-acetic acid] belongs 2000 nM; to `NC(=O)n1cc(NC(=O)N2[C@@H]3C[C@@H]3C[C@H]2C(=O)Nc2cncc(Cl)c2)c2ccccc21` [Example 247, (1R,3S,5R)-2-Aza-bicyclo[3.1.0]hexane-2,3-dicarboxylic acid 2-[(1-carbamoyl-1H-indol-3-yl)-amide] 3-[(5-chloro-pyridin-3-yl)-amide]], 400 nM; to `CN(C)C[C@@H](NC(=O)[C@@H]1C[C@@H](F)CN1C(=O)Nc1cn(C(N)=O)c2ccccc12)c1cccc(Cl)c1F` [Example 248, (2S,4R)-4-Fluoro-pyrrolidine-1,2-dicarboxylic acid 1-[(1-carbamoyl-1H-indol-3-yl)-amide] 2-{[(S)-1-(3-chloro-2-fluoro-phenyl)-2-dimethylamino-ethyl]-amide}], 119 nM. With `NC(=O)n1cc(NC(=O)N2C[C@H](F)C[C@H]2C(=O)NCc2cc(C(=O)N3CCOCC3)cc(Cl)c2F)c2ccccc21` [Example 250, (2S,4R)-4-Fluoro-pyrrolidine-1,2-dicarboxylic acid 1-[(1-carbamoyl-1H-indol-3-yl)-amide] 2-[3-chloro-2-fluoro-5-(morpholine-4-carbonyl)-benzylamide]], the IC50 was 549 nM. `CCN(CC)c1cc(Cl)c(F)c(CNC(=O)[C@@H]2C[C@@H](F)CN2C(=O)Nc2cn(C(N)=O)c3ccccc23)c1` [Example 252, (2S,4R)-4-Fluoro-pyrrolidine-1,2-dicarboxylic acid 1-[(1-carbamoyl-1H-indol-3-yl)-amide] 2-(3-chloro-5-diethylamino-2-fluoro-benzylamide)]: the half-inhibitory concentration (IC50) is 114 nM.

For the compound `NC(=O)n1cc(NC(=O)N2CCS[C@H]2C(=O)N[C@H](CO)c2cccc(Cl)c2F)c2ccccc21` [Example 253, (S)-Thiazolidine-2,3-dicarboxylic acid 3-[(1-carbamoyl-1H-indol-3-yl)-amide] 2-{[(S)-1-(3-chloro-2-fluoro-phenyl)-2-hydroxy-ethyl]-amide}], the IC50 was 1070 nM.

As for `COC1CN(C(=O)c2cc(Cl)c(F)c(CNC(=O)[C@@H]3C[C@@H](F)CN3C(=O)Nc3cn(C(N)=O)c4ccccc34)c2)C1` [Example 255, (2S,4R)-4-Fluoro-pyrrolidine-1,2-dicarboxylic acid 1-[(1-carbamoyl-1H-indol-3-yl)-amide] 2-[3-chloro-2-fluoro-5-(3-methoxy-azetidine-1-carbonyl)-benzylamide]], the IC50 was determined as 434 nM. As for `N#C[C@@H]1C[C@@H](C(=O)Nc2cccc(OC(F)(F)F)c2)N(C(=O)Nc2cn(C(N)=O)c3ccccc23)C1` [Example 256, (2S,4R)-4-cyano-pyrrolidine-1,2-dicarboxylic acid 1-[(1-carbamoyl-1H-indol-3-yl)-amide]2-[(3-trifluoromethoxy-phenyl)-amide]], the figure is 4000 nM; as for `NC(=O)n1cc(NC(=O)N2CC[C@H](O)[C@H]2C(=O)NCc2cccc(Cl)c2)c2ccccc21` [Example 257, (2S,3S)-3-Hydroxy-pyrrolidine-1,2-dicarboxylic acid 1-[(1-carbamoyl-1H-indol-3-yl)-amide] 2-(3-chloro-benzylamide)], 3950 nM; as for `NC(=O)n1cc(NC(=O)N2[C@@H]3C[C@@H]3C[C@H]2C(=O)NCc2ccccc2)c2ccccc21` [Example 258, (1R,3S,5R)-2-Aza-bicyclo[3.1.0]hexane-2,3-dicarboxylic acid 3-benzylamide 2-[(1-carbamoyl-1H-indol-3-yl)-amide]], 78 nM. For the compound `CC(=O)n1cc(NC(=O)N2C[C@@H](CO)C[C@H]2C(=O)NCc2cccc(Cl)c2F)c2ccccc21` [Example 260, (2S,4S)-4-Hydroxymethyl-pyrrolidine-1,2-dicarboxylic acid 1-[(1-acetyl-1H-indol-3-yl)-amide] 2-(3-chloro-2-fluoro-benzylamide)], the 50% inhibitory concentration (IC50) is 200 nM. With `NC(=O)n1cc(NC(=O)N2C3CC3C[C@H]2C(=O)NCc2cccc(C(F)(F)F)c2F)c2ccccc21` (stereo partly drawn) [Example 261, (1R,3S,5R)-2-Aza-bicyclo[3.1.0]hexane-2,3-dicarboxylic acid 2-[(1-carbamoyl-1H-indol-3-yl)-amide] 3-(2-fluoro-3-trifluoromethyl-benzylamide)], the half-maximal inhibitory concentration (IC50) turned out to be 75 nM. For the compound `COc1ccc(F)c(F)c1CNC(=O)[C@@H]1SCCN1C(=O)Nc1cn(C(N)=O)c2ccccc12` [Example 262, (S)-Thiazolidine-2,3-dicarboxylic acid 3-[(1-carbamoyl-1H-indol-3-yl)-amide] 2-(2,3-difluoro-6-methoxy-benzylamide)], the IC50 came to 200 nM.

As to `NC(=O)n1cc(NC(=O)N2CCS[C@H]2C(=O)NCc2cnc(Cl)s2)c2ccccc21` [Example 263, (S)-Thiazolidine-2,3-dicarboxylic acid 3-[(1-carbamoyl-1H-indol-3-yl)-amide] 2-[(2-chloro-thiazol-5-ylmethyl)-amide]], the 50% inhibitory concentration (IC50) is 400 nM. For `NC(=O)n1cc(NC(=O)N2CCS[C@H]2C(=O)NCc2cccc(Cl)c2F)c2cc(F)ccc21` [Example 264, (S)-Thiazolidine-2,3-dicarboxylic acid 3-[(1-carbamoyl-5-fluoro-1H-indol-3-yl)-amide] 2-(3-chloro-2-fluoro-benzylamide)], the IC50 worked out at 10 nM. With `NC(=O)n1cc(NC(=O)N2CCS[C@H]2C(=O)Nc2cccc(OC(F)(F)F)c2)c2ccccc21` [Example 267, (S)-Thiazolidine-2,3-dicarboxylic acid 3-[(1-carbamoyl-1H-indol-3-yl)-amide] 2-[(3-trifluoromethoxy-phenyl)-amide]], the IC50 came out at 83 nM. With `C=CCOc1ccc2c(c1)c(NC(=O)N1[C@@H]3C[C@@H]3C[C@H]1C(=O)NCc1cccc(Cl)c1F)cn2C(N)=O` [Example 268, (1R,3S,5R)-2-Aza-bicyclo[3.1.0]hexane-2,3-dicarboxylic acid 2-[(5-allyloxy-1-carbamoyl-1H-indol-3-yl)-amide] 3-(3-chloro-2-fluoro-benzylamide)], the IC50 came out at 8 nM.

Take `Cc1ccc2c(NC(=O)N3CCC[C@H]3C(=O)Nc3cccc(OC(F)(F)F)c3)cn(C(N)=O)c2c1` [Example 269]: the half-inhibitory concentration (IC50) stood at 1600 nM. `CNC(=O)n1cc(NC(=O)N2[C@@H]3C[C@@H]3C[C@H]2C(=O)N[C@H](COC)c2cccc(Cl)c2F)c2ccccc21` [Example 270, (1R,3S,5R)-2-Aza-bicyclo[3.1.0]hexane-2,3-dicarboxylic acid 3-{[(S)-1-(3-chloro-2-fluoro-phenyl)-2-methoxy-ethyl]-amide} 2-[(1-methylcarbamoyl-1H-indol-3-yl)-amide]]: the IC50 worked out at 54 nM. In the case of `CC(=O)n1cc(NC(=O)N2CCC[C@H]2C(=O)Nc2cccc(OC(F)(F)F)c2)c2ccccc21` [Example 271, (S)-Pyrrolidine-1,2-dicarboxylic acid 1-[(1-acetyl-1H-indol-3-yl)-amide] 2-[(3-trifluoromethoxy-phenyl)-amide]], the concentration for half-maximal inhibition (IC50) turned out to be 629 nM. For `NC(=O)n1cc(NC(=O)N2[C@@H](c3ccccc3)CC[C@H]2C(=O)Nc2cccc(OC(F)(F)F)c2)c2ccccc21` [Example 273, (2S,5R)-5-Phenyl-pyrrolidine-1,2-dicarboxylic acid 1-[(1-carbamoyl-1H-indol-3-yl)-amide] 2-[(3-trifluoromethoxy-phenyl)-amide]], the concentration for half-maximal inhibition (IC50) came to 2260 nM. As for `NC(=O)n1cc(NC(=O)N2C[C@H](F)C[C@H]2C(=O)Nc2cccc(OC(F)(F)F)c2F)c2ccccc21` [Example 274, (2S,4R)-4-Fluoro-pyrrolidine-1,2-dicarboxylic acid 1-[(1-carbamoyl-1H-indol-3-yl)-amide] 2-[(2-fluoro-3-trifluoromethoxy-phenyl)-amide]], the figure is 14 nM; as for `CC(=O)n1cc(NC(=O)N2[C@H](C(=O)NCc3cccc(Cl)c3F)C[C@@]3(CO)C[C@@H]23)c2ccccc21` [Example 275, (1R,3S,5S)-5-Hydroxymethyl-2-aza-bicyclo[3.1.0]hexane-2,3-dicarboxylic acid 2-[(1-acetyl-1H-indol-3-yl)-amide] 3-(3-chloro-2-fluoro-benzylamide)], 30 nM; as for `COC(=O)COc1ccc2c(NC(=O)N3[C@@H]4C[C@@H]4C[C@H]3C(=O)Nc3cccc(OC(F)(F)F)c3)cn(C(N)=O)c2c1` [Example 276, (1-Carbamoyl-3-{[(1R,3S,5R)-3-(3-trifluoromethoxy-phenylcarbamoyl)-2-aza-bicyclo[3.1.0]hexane-2-carbonyl]-amino}-1H-indol-6-yloxy)-acetic acid methyl ester], 1310 nM. Turning to `CN(C)C(=O)c1cc(Cl)c(F)c(CNC(=O)[C@@H]2C[C@@H](F)CN2C(=O)Nc2cn(C(N)=O)c3ccccc23)c1` [Example 277, (2S,4R)-4-Fluoro-pyrrolidine-1,2-dicarboxylic acid 1-[(1-carbamoyl-1H-indol-3-yl)-amide] 2-(3-chloro-5-dimethylcarbamoyl-2-fluoro-benzylamide)], the half-inhibitory concentration (IC50) worked out at 627 nM.

As to `Cn1nc(C(C)(C)C)cc1NC(=O)[C@@H]1CCCN1C(=O)Nc1cn(C(N)=O)c2ccccc12` [Example 279, (S)-Pyrrolidine-1,2-dicarboxylic acid 2-[(5-tert-butyl-2-methyl-2H-pyrazol-3-yl)-amide] 1-[(1-carbamoyl-1H-indol-3-yl)-amide]], the concentration for half-maximal inhibition (IC50) was 2900 nM.
